The target in one data set is T1, PPARγ-RXRα heterodimer (Homo sapiens, UniProt P37231).
T1 construct: expressed in transfected cells; host or cells: CHO-K1
T1 sequence (P37231 1-477 isoform P37231-2): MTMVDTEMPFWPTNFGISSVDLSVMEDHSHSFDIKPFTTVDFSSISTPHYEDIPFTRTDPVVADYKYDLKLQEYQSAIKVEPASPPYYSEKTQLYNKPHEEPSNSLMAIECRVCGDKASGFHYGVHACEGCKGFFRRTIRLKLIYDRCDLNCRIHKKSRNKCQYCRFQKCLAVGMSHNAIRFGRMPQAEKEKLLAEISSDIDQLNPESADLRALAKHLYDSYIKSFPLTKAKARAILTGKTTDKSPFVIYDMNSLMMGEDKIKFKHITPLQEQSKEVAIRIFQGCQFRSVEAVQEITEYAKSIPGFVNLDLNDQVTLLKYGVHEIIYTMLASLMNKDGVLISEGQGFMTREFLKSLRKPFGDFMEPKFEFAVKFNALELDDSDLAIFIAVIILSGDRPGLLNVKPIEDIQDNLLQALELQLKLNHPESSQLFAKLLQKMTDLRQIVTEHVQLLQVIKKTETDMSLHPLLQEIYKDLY
T1 sequence (P19793 1-462 partner): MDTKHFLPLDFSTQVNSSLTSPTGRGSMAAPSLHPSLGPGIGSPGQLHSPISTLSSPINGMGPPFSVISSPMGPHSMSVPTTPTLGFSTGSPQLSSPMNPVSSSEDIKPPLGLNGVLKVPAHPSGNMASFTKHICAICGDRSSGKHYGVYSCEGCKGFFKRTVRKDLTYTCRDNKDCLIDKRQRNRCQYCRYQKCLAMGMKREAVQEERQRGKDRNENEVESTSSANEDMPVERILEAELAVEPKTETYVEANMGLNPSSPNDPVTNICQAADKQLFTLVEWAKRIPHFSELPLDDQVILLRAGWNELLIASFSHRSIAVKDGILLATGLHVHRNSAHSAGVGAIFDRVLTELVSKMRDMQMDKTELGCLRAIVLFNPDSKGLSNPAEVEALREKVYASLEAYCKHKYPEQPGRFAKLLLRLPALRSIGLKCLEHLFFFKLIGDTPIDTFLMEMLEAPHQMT
Put plainly: PPARγ-RXRα heterodimer ligand activity (luciferase reporter, PPARγ:RXRα:4ERPP/CHO-K1 cells). It counts as cell-based. The conditions noted are these: 48 hours, concentration for 50% of the maximum fold induction. The protocol:
(PPARγ-RXRα Heterodimer Ligand Activity)
A PPARγ:RXRα:4ERPP/CHO-K1 cells obtained in Reference Example 5 described later were cultured in HAM F12 medium (produced by NISSUI SEIYAKU) containing 10% Fetal bovine serum (produced by Life Technologies, Inc., USA) and then inoculated to a 96-well white plate (produced by Corning Costar Corporation, USA) at the density of 2×10^4 cells/well, and cultured in a CO2 gas incubator at 37° C. overnight.
After washing the 96 well white plate with PBS (Phosphate-buffered saline), 90 μl of HAM F12 medium containing 0.1% fatty acid-free bovine serum albumin (BSA) and 10 μl of test compound were added, which was cultured in a CO2 gas incubator at 37° C. for 48 hours. After removing the medium, 40 μl of PIKKAGENE 7.5 (produced by Wako Pure Chemical Industries, Ltd.) was added. After stirring, the luciferase activity was determined using Lumistar (produced by BMG Labtechnologies GmbH, Germany).
A fold induction was calculated based on the luciferase activity of each test compound by taking the luciferase activity in the non-treatment group as 1. The values of the test compound concentration and the fold induction were analyzed using PRISM 2.01 (produced by GraphPad Software Inc. USA) to calculate the EC50 values, the effective concentration of a test compound for 50% of the maximum fold induction.
(Introduction of Human PPARγ- and RXRα-Expressing Plasmid and Reporter Plasmid into CHO-K1 Cell and Establishment of Expressed Cell)
After a CHO-K1 cell cultured in a 750 ml tissue culture flask (produced by Corning Costar Corporation, USA) containing HAM F12 medium (produced by NISSUI SEIYAKU) supplemented with 10% Fetal Bovine Serum (produced by Life Technologies, Inc., USA) was scraped by treating with 0.5 g/L trypsin-0.2 g/L EDTA (ethylenediaminetetraacetic acid) (produced by Life Technologies, Inc., USA), the cell was washed with PBS (phosphate-buffered saline) (produced by Life Technologies, Inc., USA), centrifuged (1000 rpm, 5 minutes), and then suspended in PBS. Subsequently, a DNA was introduced into the cell under the condition shown below using GENE PULSER (produced by Bio-Rad Laboratories, USA).
Namely, to a cuvette having a 0.4 cm gap, added were 8×10^6 cells and 10 μg of plasmid pVgRXR2-hPPAR γ obtained in Reference Example 3 and 10 μg of reporter plasmid pGL3-4ERPP-TK neo obtained in Reference Example 4, which was subjected to electroporation at the voltage of 0.25 kV under the capacitance of 960 μF. Subsequently, the cell was transferred into a HAM F12 medium containing 10% Fetal Bovine Serum and cultured for 24 hours and then the cell was scraped again and centrifuged, and then suspended in HAM F12 medium containing 10% Fetal Bovine Serum supplemented with 500 μg/ml of GENETICIN (produced by Life Technologies, Inc., USA) and 250 μg/ml of ZEOCIN (produced by Invitrogen, USA) and diluted to the density of 10^4 cells/ml upon inoculation to a 96-well plate (produced by Corning Costar Corporation, USA), which was cultured in a CO2 gas incubator at 37° C., whereby obtaining a GENETICIN- and ZEOCIN-resistant transformant.
Subsequently, after the transformant cell line thus obtained was cultured in a 24-well plate (produced by Corning Costar Corporation, USA), selected was a cell line in which the luciferase was expressed and induced, i.e., PPARγ:RXRα:4ERPP/CHO-K1 cell by addition of 10 μM pioglitazone hydrochloride.
In general terms: A reporter such as luciferase makes a cellular process visible.

The subject of another data set is KKA^y mice. Put plainly: Hypoglycemic and hypolipidemic actions in mice. The format is in vivo. The conditions noted are these: Mus musculus, po, 96 h, four days; for inhibition in vivo at 0.001 %: 0.001% in powdery diet; for inhibition in vivo at 0.005 %: 0.005% in powdery diet. The text has this:
Hypoglycemic and Hypolipidemic Actions in Mice
Test compounds were mixed in a powdery diet (CE-2, Japan Clea) at the concentration of 0.01% (compounds of Examples 12, 30, 89, 186), 0.005% (compounds of Examples 7, 80, 82, 181, 182, 184, 256, 262, 283), 0.001% (compounds of Examples 9, 104, 110, 155, 156, 160, 167, 169, 172, 174, 176, 189), or 0.0003% (compounds of Examples 38, 40, 44), and freely given to KKA^y mice (9 to 12 weeks old, 5 mice in a group), a model of obese and type 2 diabetes mellitus, for four days. During this period, water was given freely. Blood was sampled from orbital venous plexus, and glucose and triglyceride levels in plasma separated from blood were determined enzymatically using L type Wako Glu2 (Wako Pure Chemical Industries, Ltd.) or L type Wako TG•H (Wako Pure Chemical Industries, Ltd.), respectively.
In the Table, the value of each treatment group is represented as percent reduction compared with the non-treatment group.

Setting [1] is: percent reduction of plasma glucose compared with the non-treatment group, read-out: Hypoglycemic action (%).
Setting [2] is: percent reduction of plasma triglyceride compared with the non-treatment group, read-out: Hypolipidemic action (%).

Like-named read-outs stand apart in the source and are kept apart here.

`Cc1oc(-c2ccccc2)nc1COc1ccc(Cn2cc(CCC(=O)O)c(-c3ccc(F)cc3)n2)cc1` [Example 100, 3-[3-(4-fluorophenyl)-1-[4-(5-methyl-2-phenyl-4-oxazolylmethoxy)benzyl]-1H-pyrazol-4-yl]propionic acid] showed a melting point of 139 to 140 °C. The same compound returned an EC50 at PPARγ-RXRα heterodimer of 1.8 nM.

In the case of `Cc1oc(-c2ccco2)nc1COc1ccc(Cn2cc(CCC(=O)O)c(-c3ccccc3)c2)cc1` [Example 8, 3-[1-[4-[2-(2-furyl)-5-methyl-4-oxazolylmethoxy]benzyl]-4-phenyl-3-pyrrolyl]propionic acid], the melting point is 86 to 87 °C. The same compound had an EC50 at PPARγ-RXRα heterodimer of 2.7 nM.

Regarding `CCOC(=O)CCc1cn(Cc2ccc(OCc3nc(-c4ccco4)oc3C)cc2)nc1-c1ccc(F)cc1` [Example 104, ethyl 3-[3-(4-fluorophenyl)-1-[4-[2-(2-furyl)-5-methyl-4-oxazolylmethoxy]benzyl]-1H-pyrazol-4-yl]propionate], the inhibition in vivo at 0.001 % came to 43% in the data set with KKA^y mice (setting [1]) and 42% in the data set with KKA^y mice (setting [2]). Also, the response at PPARγ-RXRα heterodimer was half-maximal at 2 nM (EC50).

Take `Cc1oc(-c2ccco2)nc1COc1ccc(Cn2cc(CCC(=O)O)c(-c3ccccc3)n2)cc1` [Example 80, 3-[1-[4-[2-(2-furyl)-5-methyl-4-oxazolylmethoxy]benzyl]-3-phenyl-1H-pyrazol-4-yl]propionic acid]: the melting point is 152 to 153 °C. In addition, in the data set with KKA^y mice (setting [1]), the inhibition in vivo at 0.005 % was 42%. Besides, the inhibition in vivo at 0.005 % with KKA^y mice (setting [2]) stood at 22%. The compound also displayed an EC50 at PPARγ-RXRα heterodimer of 2.5 nM.

In the case of `Cc1oc(-c2ccccc2)nc1COc1ccc(Cn2cc(CCC(=O)O)c(-c3ccccc3)c2)cc1` [Example 7, 3-[1-[4-(5-methyl-2-phenyl-4-oxazolylmethoxy)benzyl]-4-phenyl-3-pyrrolyl]propionic acid], the melting point was 124 to 125 °C. Moreover, the inhibition in vivo at 0.005 % in the data set on KKA^y mice (setting [1]) is 54%. For the same compound, the inhibition in vivo at 0.005 % with KKA^y mice (setting [2]) was 60%. This compound gave an EC50 on PPARγ-RXRα heterodimer of 3.8 nM.

Turning to `Cc1oc(-c2cccs2)nc1COc1ccc(Cn2cc(CCC(=O)O)c(-c3ccccc3)n2)cc1` [Example 82, 3-[1-[4-[5-methyl-2-(2-thienyl)-4-oxazolylmethoxy]benzyl]-3-phenyl-1H-pyrazol-4-yl]propionic acid], the melting point was 159 to 160 °C. Moreover, the inhibition in vivo at 0.005 % in the data set on KKA^y mice (setting [1]) came out at 50%. For the same compound, in the data set on KKA^y mice (setting [2]), the inhibition in vivo at 0.005 % worked out at 58%. This compound also had an EC50 on PPARγ-RXRα heterodimer of 1.4 nM.

For `CCCc1nn(Cc2ccc(OCc3nc(-c4ccccc4)oc3C)cc2)cc1CCC(=O)O` [Example 110, 3-[1-[4-(5-methyl-2-phenyl-4-oxazolylmethoxy)benzyl]-3-propyl-1H-pyrazol-4-yl]propionic acid], the melting point lay within 153 to 154 °C. Further, in the data set with KKA^y mice (setting [1]), the inhibition in vivo at 0.001 % stood at 50%. Also, the inhibition in vivo at 0.001 % with KKA^y mice (setting [2]) amounted to 70%. Also, the EC50 on PPARγ-RXRα heterodimer was 3.5 nM.

The compound `CCOc1nn(Cc2ccc(OCc3cn(-c4ccccn4)nc3C)cc2)cc1CCC(=O)O` [Example 256, 3-[3-ethoxy-1-[4-(3-methyl-1-(2-pyridyl)-1H-pyrazol-4-ylmethoxy]benzyl]-1H-pyrazol-4-yl]propionic acid] registered a melting point of 126 to 127 °C. Moreover, the inhibition in vivo at 0.005 % with KKA^y mice (setting [1]) worked out at 57%. Also, in the data set on KKA^y mice (setting [2]), the inhibition in vivo at 0.005 % was 16%. The same compound came in with an EC50 on PPARγ-RXRα heterodimer of 53 nM.

One may read the melting point as the temperature of the solid-liquid transition. The EC50 is the midpoint of the concentration-response curve. A low value points to greater potency.

(Values after patent US7179823B1, “5-membered n-heterocyclic compounds with hypoglycemic and hypolipidemic activity” (Takeda Pharmaceutical Company Limited, priority 1999, dated 2007).)
